One test deals with T1, Squalene Synthase (Rattus norvegicus, UniProt Q02769).
T1 construct: from tissue; host or cells: rat liver microsomes (male Charles River CD rats, fed 0.1% lovastatin for 4 days)
T1 sequence (Q02769 1-416): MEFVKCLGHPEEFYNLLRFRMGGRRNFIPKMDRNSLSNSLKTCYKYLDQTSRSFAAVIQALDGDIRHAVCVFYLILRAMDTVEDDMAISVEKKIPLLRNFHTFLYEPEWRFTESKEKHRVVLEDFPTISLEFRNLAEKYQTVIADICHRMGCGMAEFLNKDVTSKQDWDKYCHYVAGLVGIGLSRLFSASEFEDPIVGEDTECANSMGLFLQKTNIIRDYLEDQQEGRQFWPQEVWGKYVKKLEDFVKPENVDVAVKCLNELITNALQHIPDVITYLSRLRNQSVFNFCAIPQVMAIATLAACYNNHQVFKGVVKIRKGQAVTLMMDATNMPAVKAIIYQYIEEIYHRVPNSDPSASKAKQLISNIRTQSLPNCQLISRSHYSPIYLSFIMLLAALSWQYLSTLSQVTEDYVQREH
Put plainly: Squalene Synthase Assay (in vitro, rat liver microsomes). The class given is biochemical. As to conditions: [4-14C]farnesyl pyrophosphate, 30° C., 20 minutes. On the procedure:
The intrinsic squalene synthase inhibitory activity of representative compounds of this invention was measured by the standard ill vitro protocol described below:
Preparation of Rat Liver Microsomes
Male, CHARLES RIVER CD® rats (120 to 150 g) were fed a diet containing 0.1% lovastatin for 4 days. The livers from these rats were homogenized in 5 volumes (mL/g) of ice cold 50 mM HEPES (4-(2-hydroxyethyl)-1-piperazine-ethanesulfonic acid), 5 mM EDTA(ethylenediaminetetraacetic acid) pH 7.5 with a Potter-Elvehjem type tissue grinder. The homogenate was centrifuged twice at 20,000 × g for 15 min. at 4° C., discarding the pellet each time. The supernatant was then centrifuged at 100,000 × g for 1 hr at 4° C. The resulting microsomal pellet was resuspended in a volume of the above homogenizing buffer equal to one-fifth the volume of the original homoSenate. This microsomal preparation has a protein concentration of about 7 mg/mL. The microsomal suspensions were stored in aliquots at -70° C. Squalene synthase activity in these aliquots is stable for a least several months.
Partial Purification of Prenyl Transferase
Prenyl transferase was purified to use in the enzymatic synthesis of radiolabelled farnesyl pyrophosphate. […]

The subject of the next test is Ras. The settings on record: Hancock et al.; Casey et al.; Schafer et al.; cited from earlier work.

Consider 3 compounds from patent publication US5447717A, “Cholesterol-lowering agents” (Merck & Co., Inc., priority 1993, dated 1995).

`C=C(CCC12OC3C(=O)OC3(C(=O)O)C(C(=O)O)(O1)C(OC(=O)/C=C/C(C)CC(C)CC)C2O)C(OC(C)=O)C(C)Cc1ccccc1` (stereo not drawn) [Compound 1, IIA-β-Lactone] gave an IC50 against Squalene Synthase of 0.4 nM.

On to `CC[C@H](C)C(=O)O[C@H]1C[C@@H](C)C=C2C=C[C@H](C)[C@H](CC[C@@H]3C[C@@H](O)CC(=O)O3)[C@H]21` [lovastatin], for which the “Inhibition of Ras farnesylation in vivo” value in the test on Ras is recorded as “Inhibition of Ras farnesylation in vivohas been demonstrated”.

In the case of `CC[C@H](C)C(=O)O[C@H]1CCC=C2C=C[C@H](C)[C@H](CC[C@@H]3C[C@@H](O)CC(=O)O3)[C@H]21` [compactin], in the test on Ras, the “Inhibition of Ras farnesylation in vivo” value is reported as “Inhibition of Ras farnesylation in vivohas been demonstrated”.
